Laboratory results reported in publication PMC12214158, “Structure–activity relationship of ^18F-labeled PD-L1-targeting small molecule ligands: impact of radiolabeling strategy on affinity and in vivo performance” (EJNMMI Radiopharmacy and Chemistry, 2025).

What was measured:
human PD-L1 = biological target: T1, human PD-L1 (Homo sapiens, UniProt Q9NZQ7); assay: Competition binding assay against [^64Cu]Cu-1 on PC3 PD-L1 overexpressing cells; settings: against [^64Cu]Cu-1 (30 nM), 14 dilutions 1 µM–120 pM, n = 2 from triplicates, read-out: Ki (inhibitory constant from competition binding assay)
T1 construct: expressed in transfected cells; host or cells: PC3 cells (human prostate carcinoma) transduced to overexpress human PD-L1
Experimental: Prior to competition binding experiments, cells were detached with 0.05% Trypsin–EDTA (Gibco, USA), trypsinized and counted (CASY1 cell counter, Schaerfe System, Reutlingen, Germany). Cells were then diluted in medium to ~ 320,000 cells/mL and seeded to 48 well plates (Falcon Multiwell #353078, ThermoFisher, Karlsruhe, Germany) for at least one day.
For the determination of inhibitory constant (Ki), competition binding experiments were conducted in a minimum of two independent experiments, with each data point formed from triplicates. For this purpose, all described compounds competed with a previously reported biphenyl-based PD-L1 small molecule radioligand (Krutzek et al. [2023b]).
Human PD-L1 transduced PC3 cells were grown under conditions described above. For the experiments, plates were allowed to reach room temperature followed by cooling on ice (each 15 min). 200 µL of assay buffer (PBS) replaced the culture. For each compound, total binding (TB) of the radioligand was determined, along with […] of BMS-1166 (synthesized according to reference (Guzik et al. [2017]) (dissolved in DMSO, resulting in 0.03% v/v) for estimation of nonspecific binding (NSB).
Incubation for 90 min followed, wells were then washed with ice-cold assay buffer (3 washes) and cells subjected to lysis (500 µL of 0.1 M NaOH + 1% SDS). The radioactivity of 400 µL lysate was assessed via a gamma counter (Perkin Elmer Wizard 1480). Binding to polystyrene was determined on an extra plate without any cells under identical conditions. Activity and therefore concentration of the radioligand stock solution was confirmed via 50 µL samples. Data was corrected for radioactive decay to a reference time (end of radiolabeling). The protein content of lysates from a control plate (seeded from the same cell suspension, incubated under identical conditions) was quantified using a BCA assay, and the mean value (µg/mL) was employed for this specific dataset. Via mean protein content and molar activity, final values (pmol/mg protein) were computed from the CPM measurements. Ki was fitted via a One site model (GraphPad Prism 10), using the previously determined KD for the radiolabeled compound and the actual concentration of the radioligand.

[1] = Proteolytic stability in human serum, radio-HPLC; assay type: in vitro ADME; settings: 37 °C, all time points up to 4 h
Experimental: With both ^18F-ligands in hand, distribution coefficients (log D7.4) were determined using the shake flask method with n-octanol and PBS. The introduction of three hydrophilizing units led to log D7.4 values of − 2.54 ± 0.02 for [^18F]F-2 and − 2.68 ± 0.08 for [^18F]F-3, which indicates moderate hydrophilicity. Subsequently, proteolytic stability was investigated (Supplementary Fig. S68 and S69), by incubating in human serum at 37 °C for up to 4 h. Before incubation (0 h) and 0.5, 1, 2 and 4 h after incubation, an aliquot was taken, and serum proteins were precipitated. Analysis of radiotracers was performed with radio-HPLC, showing the intact radiotracers (0 h) at 7.0 ([^18F]F-2) and 7.7 min ([^18F]F-3). At all time points, radiotracers remained intact up to 99%.
Subsequently, proteolytic stability was investigated (Supplementary Fig. S70 and S71), by incubating in human serum at 37 °C for up to 4 h. Before incubation (0 h) and 0.5, 1, 2 and 4 h after incubation, an aliquot was taken, and serum proteins were precipitated. Analysis of radiotracers was performed with radio-HPLC, showing the intact radiotracers (0 h) at 7.9 (Al[^18F]F-36) and 8.1 min (Al[^18F]F-37). After 4 h, both radiotracers remained intact up to 91% and 92%, respectively.
For proteolytic stability studies, a solution of the radiolabeled compound was diluted with human serum in a ratio of 1:10. […]

[2] = test system: NMRI-nude mice bearing PC3 PD-L1 and PC3 mock tumors; assay: Small animal PET in mice bearing PC3 PD-L1 and PC3 mock tumors; assay type: in vivo; settings: for SUVmax PC3 PD-L1 tumor / SUVmax PC3 mock tumor / Uptake (SUVmean) Bone (spine) / Uptake (SUVmean) Gall bladder / Uptake (SUVmean) Heart / Uptake (SUVmean) Liver / Uptake (SUVmean) PC3 PD-L1 tumor / Uptake (SUVmean) PC3 mock tumor / Uptake (SUVmean) Small intestine: 1–2 h p.i.; for Uptake (SUVmean) Bone (spine) / Uptake (SUVmean) Gall bladder / Uptake (SUVmean) Heart / Uptake (SUVmean) Liver / Uptake (SUVmean) PC3 PD-L1 tumor / Uptake (SUVmean) PC3 mock tumor / Uptake (SUVmean) Small intestine: mean; for transition from liver and gall bladder into the intestine: time-activity curves
Experimental: Male athymic NMRI-nude mice (Rj:NMRI-Foxn1nu, Charels River, Germany) aged 8 to 16 weeks were used to investigate pharmacokinetics and tumor uptake. For subcutaneous injection of cells, general anesthesia was induced with ~ 10% desflurane (Baxter, Deerfield, IL, USA) in 30 vol% oxygen + air at controlled 37 °C. Mice were injected with 3–5 × 10^6 PC3 PD-L1 and PC3 mock cells (in 50 µL PBS + 50 µL Matrigel, Corning, Glendale, CA, USA) into the right and left thigh, respectively. Tumor growth was monitored (3 times per week) using calipers, and animals enrolled in PET scans once tumors reached 7 mm.
Under general anesthesia, PET and X-ray computed tomography (CT) scans were conducted using a small animal PET/CT scanner (nanoScan PET/CT, Mediso, Budapest, Hungary), with four animals imaged simultaneously. CT images were used for attenuation correction and anatomical referencing.
The radiotracer candidates were diluted in 200–300 µL sterile 0.9% NaCl (and up to 2% EtOH, pH 6–7) and intravenously delivered over 30 s through a lateral tail vein catheter. PET acquisition (2 h p.i.) was started simultaneously with the administration. Injected activities were between 5 and 12 MBq (with molar activities 5–18 GBq/µmol). If animals were subjected to an additional scan later, the minimum time in between was > 3 days to allow decay and full metabolization.
The acquired three-dimensional list mode data were sorted and binned within a 400–600 keV energy window, forming 35 time frames (15 × 10 s, 5 × 30 s, 5 × 60 s, 4 × 300 s, 3 × 600 s, 3 × 1200 s). Reconstruction was performed with Mediso’s Tera-Tomo™ 3D algorithm, with a voxel size of 0.4 mm and corrections for decay, scatter, and attenuation. The images were subjected to post-processing and analysis using Rover software (ABX GmbH, Radeberg, Germany), and are shown as maximum intensity projections (MIPs) at the specified timepoint and scaling.
Three-dimensional volumes of interest were defined using fixed thresholding at 35–40% of the maximum measured intensity. Standardized uptake values (SUV = [MBq detected activity/mL tissue]/[MBq injected activity/g body weight], in mL/g) were then calculated within the selected volumes of interest, e.g. PD-L1 and mock tumors, as well as other relevant and metabolizing organs.

PC3 PD-L1 cells = biological target: T2, PC3 PD-L1 cells (Homo sapiens, UniProt Q9NZQ7); assay: Real-time radioligand binding (LigandTracer) to PC3 PD-L1 cells; settings: room temperature
T2 construct: expressed in transfected cells; host or cells: PC3 cells (human prostate carcinoma) transduced to overexpress human PD-L1
Experimental: The LigandTracer system (Ridgeview Instruments AB, Uppsala, Sweden) allows assessing the binding kinetics (association rate constant ka and dissociation rate constant kd) and therefore dissociation constant (KD) of radiolabeled compounds. For that purpose, target-positive PC3 PD-L1 cells are seeded to a quadrant of a petri dish (Thermo Scientific Nunclon Delta #150350). In our initial tests, 1.2x10^6 cells were seeded one day prior to the experiment.
The petri dish is then placed in the instrument, the culture medium removed and replaced with 3 mL CO2-independent medium (Gibco #18045088, ThermoFisher Germany). In the LigandTracer system, the dish rotates on an inclined base, with cells in medium (3 mL) located on one side (target), while no cells (background) are located on the other side. Radioactivity (counts per second) is then constantly measured for 30 seconds on either side. This allows continuous measurements of two (or more) alternating parts of the dish for bound radioactivity, with target – background indicating binding over time.
All experiments were performed at room temperature. Association of compounds was observed following incubation with two increasing concentrations of the tracer. The tracer-containing solution was then exchanged for fresh medium, to allow observation of dissociation for at least 120 min.

T1 sequence (Q9NZQ7 19-290): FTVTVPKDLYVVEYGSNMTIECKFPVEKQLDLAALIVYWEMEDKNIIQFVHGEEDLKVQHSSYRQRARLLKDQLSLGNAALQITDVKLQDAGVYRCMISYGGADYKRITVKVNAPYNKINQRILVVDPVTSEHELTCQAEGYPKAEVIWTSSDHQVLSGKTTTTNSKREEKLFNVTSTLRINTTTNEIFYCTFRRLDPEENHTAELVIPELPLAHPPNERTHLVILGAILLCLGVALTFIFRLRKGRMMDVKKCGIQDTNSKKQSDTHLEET
T2 sequence (Q9NZQ7 19-290): as above

`Cc1c(COc2cc(OCc3cncc(S(C)(=O)=O)c3)c(CN(C)C(=O)[C@H](CS(=O)(=O)O)NC(=O)[C@H](CS(=O)(=O)O)NC(=O)CCP(=O)(O)O)cc2Cl)cccc1-c1cccc(OCc2cn([C@@H]3O[C@H](CF)[C@@H](O)[C@H](O)[C@H]3O)nn2)c1C` [Compound 2, (R)−3-((5-Chloro-4-((3'-((1-((2R,3R,4S,5S,6S)−6-(fluoromethyl)−3,4,5-trihydroxytetrahydro-2H-pyran-2-yl)−1H-1,2,3-triazol-4-yl)methoxy)−2,2'-dimethyl-[1,1'-biphenyl]−3-yl)methoxy)−2-((5-(methylsulfonyl)pyridin-3-yl)methoxy)benzyl)(methyl)amino)−3-oxo-2-((R)−2-(3-phosphonopropanamido)−3-sulfopropanamido)propane-1-sulfonic acid] showed a Ki (human PD-L1) of 189 nM.

`Cc1c(COc2cc(OCc3cncc(S(C)(=O)=O)c3)c(CN(C)C(=O)[C@H](CS(=O)(=O)O)NC(=O)[C@H](CS(=O)(=O)O)NC(=O)CCP(=O)(O)O)cc2Cl)cccc1-c1cccc(OCc2cn(CCOCCOCCF)nn2)c1C` [Compound 3, (R)−3-((5-Chloro-4-((3'-((1-(2-(2-(2-fluoroethoxy)ethoxy)ethyl)−1H-1,2,3-triazol-4-yl)methoxy)−2,2'-dimethyl-[1,1'-biphenyl]−3-yl)methoxy)−2-((5-(methylsulfonyl)pyridin-3-yl)methoxy)benzyl)(methyl)amino)−3-oxo-2-((R)−2-(3-phosphonopropanamido)−3-sulfopropanamido)propane-1-sulfonic acid] gave a Ki (human PD-L1) of 475 nM.

For `Cc1c(COc2cc(OCc3cncc(S(C)(=O)=O)c3)c(CN(C)C(=O)[C@H](CS(=O)(=O)O)NC(=O)[C@H](CS(=O)(=O)O)NC(=O)CCP(=O)(O)O)cc2Cl)cccc1-c1cccc(OCc2cn([C@@H]3O[C@H](C[18F])[C@@H](O)[C@H](O)[C@H]3O)nn2)c1C` [[^18F]F-2], the Ki (human PD-L1) was 189 nM, the radiotracer remaining intact [1] was “up to 99%” and the “bone uptake (sign of defluorination)” value [2] was “lacked a discernible bone uptake”. For the same compound, the excretion route [2] was “exclusively excreted via the hepatobiliary route”, the “target-specific tumor uptake, PC3 PD-L1 versus PC3 mock” value [2] was “marked absence of target-specific uptake” and the “SUVmax PC3 PD-L1 tumor” value [2] was 0.66. For the same compound, the “SUVmax PC3 mock tumor” value [2] was 0.77, the “Uptake (SUVmean) Bone (spine)” value [2] was 0.25 and the “Uptake (SUVmean) Gall bladder” value [2] was 46.45. The “Uptake (SUVmean) Heart” value [2] was 0.86, the “Uptake (SUVmean) Liver” value [2] was 1.61 and the “Uptake (SUVmean) PC3 PD-L1 tumor” value [2] was 0.34. The “Uptake (SUVmean) PC3 mock tumor” value [2] was 0.39, the “Uptake (SUVmean) Small intestine” value [2] was 114.55 and the “transition from liver and gall bladder into the intestine” value [2] was 10 to 15 min.

With `Cc1c(COc2cc(OCc3cncc(S(C)(=O)=O)c3)c(CN(C)C(=O)[C@H](CS(=O)(=O)O)NC(=O)[C@H](CS(=O)(=O)O)NC(=O)CCP(=O)(O)O)cc2Cl)cccc1-c1cccc(OCc2cn(CCOCCOCC[18F])nn2)c1C` [[^18F]F-3] the Ki (human PD-L1) was 475 nM, the radiotracer remaining intact [1] was “up to 99%” and the “bone uptake (sign of defluorination)” value [2] was “lacked a discernible bone uptake”. The excretion route [2] was “exclusively excreted via the hepatobiliary route”, the “target-specific tumor uptake, PC3 PD-L1 versus PC3 mock” value [2] was “marked absence of target-specific uptake” and the “SUVmax PC3 PD-L1 tumor” value [2] was 0.30. The “SUVmax PC3 mock tumor” value [2] was 0.34, the “Uptake (SUVmean) Bone (spine)” value [2] was 0.13 and the “Uptake (SUVmean) Gall bladder” value [2] was 150.54. For the same compound, the “Uptake (SUVmean) Heart” value [2] was 0.20, the “Uptake (SUVmean) Liver” value [2] was 0.70 and the “Uptake (SUVmean) PC3 PD-L1 tumor” value [2] was 0.17. For the same compound, the “Uptake (SUVmean) PC3 mock tumor” value [2] was 0.17, the “Uptake (SUVmean) Small intestine” value [2] was 105.54 and the “transition from liver and gall bladder into the intestine” value [2] was 10 to 15 min. The “real-time radioligand binding, bound radioactivity over time” value (PC3 PD-L1 cells) was “almost no binding takes place and no”.
